Target: T1, Recombinant (1-346) HPK1 (h) (Homo sapiens, UniProt Q92918)
T1 construct: Recombinant (1-346) HPK1 (h) is incubated with 8 mM MOPS pH 7.0
T1 sequence (Q92918 1-346): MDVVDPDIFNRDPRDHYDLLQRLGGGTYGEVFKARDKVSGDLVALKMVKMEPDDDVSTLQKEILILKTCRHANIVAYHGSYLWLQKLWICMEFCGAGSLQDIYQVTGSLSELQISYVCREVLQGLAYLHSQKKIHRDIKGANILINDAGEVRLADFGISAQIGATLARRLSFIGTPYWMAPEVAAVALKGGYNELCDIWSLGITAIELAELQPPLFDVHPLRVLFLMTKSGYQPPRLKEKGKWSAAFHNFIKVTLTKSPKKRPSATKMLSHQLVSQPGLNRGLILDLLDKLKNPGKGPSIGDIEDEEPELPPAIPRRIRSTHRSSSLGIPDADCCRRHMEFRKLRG
Experiment: HPK1 human STE kinase enzymatic radiometric assay
Format: biochemical
Settings: read-out: HPK1 IC50 nM Range
Protocol: (a) HPK1 Human STE Kinase Enzymatic Radiometric Assay
A stock solution of 10 mM of test compound is prepared in DMSO. The compound plate was prepared by 3-fold and 9-point serial dilutions. Recombinant (1-346) HPK1 (h) is incubated with 8 mM MOPS pH 7.0, 0.2 mM EDTA, 0.33 mg/mL myelin basic protein, 10 mM MgAcetate and [gamma-33P]-ATP (specific activity and concentration as required). The reaction is initiated by the addition of the Mg/ATP mix. After incubation for 40 minutes at RT, the reaction is stopped by the addition of phosphoric acid to a concentration of 0.5%, 10 μL of the reaction is then spotted onto a P30 filtermat and washed four times for 4 minutes in 0.425% phosphoric acid and once in methanol prior to drying and scintillation counting. For more details of kinase assay protocols, see: Gao, Y. et. al.; Biochem J.451 (2): 313-328, 2013.

Row | SMILES | IC50 [nM]
1 | COc1c[nH]c(=O)c2ccc(-c3nc(-c4ccc(N5CCN(C(C)C)CC5)cc4)c(F)nc3N)cc12 [Example I-119, 6-(3-amino-5-fluoro-6-(4-(4-isopropylpiperazin-1-yl)phenyl)pyrazin-2-yl)-4-methoxyisoquinolin-1(2H)-one] | 11 to 100
2 | CN(C)Cc1cc(-c2nc(-c3cc(F)c4c(=O)[nH]cc(F)c4c3)c(N)nc2F)ccc1N1CCOCC1 [Example I-120, 6-(3-amino-6-(3-((dimethylamino)methyl)-4-morpholinophenyl)-5-fluoropyrazin-2-yl)-4,8-difluoroisoquinolin-1(2H)-one] | 0.1 to 10
3 | Cc1[nH]c(=O)c2ccc(-c3nc(-c4ccc(N5CCN(CC6CC6)CC5)cc4)c(F)nc3N)cc2c1Cl [Example I-122, 6-(3-amino-6-(4-(4-(cyclopropylmethyl)piperazin-1-yl)phenyl)-5-fluoropyrazin-2-yl)-4-chloro-3-methylisoquinolin-1(2H)-one] | 0.1 to 10
4 | Cc1[nH]c(=O)c2ccc(-c3nc(-c4ccc(N5CC6(CN(C)CCO6)C5)cc4)c(F)nc3N)cc2c1F [Example I-123, 6-(3-amino-5-fluoro-6-(4-(8-methyl-5-oxa-2,8-diazaspiro[3.5]nonan-2-yl)phenyl)pyrazin-2-yl)-4-fluoro-3-methylisoquinolin-1(2H)-one] | 11 to 100
5 | Cc1[nH]c(=O)c2ccc(-c3nc(-c4ccc(N5CCOCC5)c(CN(C)C)c4)c(F)nc3N)cc2c1Cl [Example I-124, 6-(3-amino-6-(3-((dimethylamino)methyl)-4-morpholinophenyl)-5-fluoropyrazin-2-yl)-4-chloro-3-methylisoquinolin-1(2H)-one] | 0.1 to 10
6 | Cc1[nH]c(=O)c2ccc(-c3nc(-c4ccc(C5CCOCC5)c(CN(C)C)c4)c(F)nc3N)cc2c1Cl [Example I-125, 6-(3-amino-6-(3-((dimethylamino)methyl)-4-(tetrahydro-2H-pyran-4-yl)phenyl)-5-fluoropyrazin-2-yl)-4-chloro-3-methylisoquinolin-1(2H)-one] | 0.1 to 10
7 | COC1CCN(Cc2cc(-c3nc(-c4ccc5c(c4)CCNC5=O)c(N)nc3F)ccc2N2CCSCC2)CC1 [Example I-126, 6-(3-amino-5-fluoro-6-(3-((4-methoxypiperidin-1-yl)methyl)-4-thiomorpholinophenyl)pyrazin-2-yl)-3,4-dihydroisoquinolin-1(2H)-one] | 11 to 100
8 | COC1CCN(Cc2cc(-c3nc(-c4cc5c(cc4F)C(=O)NCC5)c(N)nc3F)ccc2N2CCSCC2)CC1 [Example I-127, 6-(3-amino-5-fluoro-6-(3-((4-methoxypiperidin-1-yl)methyl)-4-thiomorpholinophenyl)pyrazin-2-yl)-7-fluoro-3,4-dihydroisoquinolin-1(2H)-one] | 11 to 100
9 | CN(C)Cc1cc(-c2nc(-c3ccc4c(c3)CCNC4=O)c(N)nc2F)ccc1N1CCSCC1 [Example I-128, 6-(3-amino-6-(3-((dimethylamino)methyl)-4-thiomorpholinophenyl)-5-fluoropyrazin-2-yl)-3,4-dihydroisoquinolin-1(2H)-one] | 0.1 to 10
10 | CN(C)Cc1cc(-c2nc(-c3cc4c(cc3F)C(=O)NCC4)c(N)nc2F)ccc1N1CCSCC1 [Example I-129, 6-(3-amino-6-(3-((dimethylamino)methyl)-4-thiomorpholinophenyl)-5-fluoropyrazin-2-yl)-7-fluoro-3,4-dihydroisoquinolin-1(2H)-one] | 0.1 to 10
11 | Cc1nc2cc(-c3nc(-c4ccc(N5CC6(CN(C)CCO6)C5)cc4)c(F)nc3N)ccc2c(=O)[nH]1 [Example I-130, 7-(3-amino-5-fluoro-6-(4-(8-methyl-5-oxa-2,8-diazaspiro[3.5]nonan-2-yl)phenyl)pyrazin-2-yl)-2-methylquinazolin-4(3H)-one] | 101 to 1000
12 | COC1CCN(Cc2cc(-c3nc(-c4ccc5c(c4)CCNC5=O)c(N)nc3F)ccc2C2CCOCC2)CC1 [Example I-131, 6-(3-amino-5-fluoro-6-(3-((4-methoxypiperidin-1-yl)methyl)-4-(tetrahydro-2H-pyran-4-yl)phenyl)pyrazin-2-yl)-3,4-dihydroisoquinolin-1(2H)-one] | 11 to 100
13 | COC1CCN(Cc2cc(-c3nc(-c4cc5c(cc4F)C(=O)NCC5)c(N)nc3F)ccc2C2CCOCC2)CC1 [Example I-132, 6-(3-amino-5-fluoro-6-(3-((4-methoxypiperidin-1-yl)methyl)-4-(tetrahydro-2H-pyran-4-yl)phenyl)pyrazin-2-yl)-7-fluoro-3,4-dihydroisoquinolin-1(2H)-one] | 11 to 100
14 | COC1CCN(Cc2cc(-c3nc(-c4cc5c(cc4F)C(=O)NCC5)c(N)nc3F)ccc2N2CCOCC2)C1 (centres unmarked) [Example I-134, 6-(3-amino-5-fluoro-6-(3-((3-methoxypyrrolidin-1-yl)methyl)-4-morpholinophenyl)pyrazin-2-yl)-7-fluoro-3,4-dihydroisoquinolin-1(2H)-one] | 0.1 to 10
15 | CC1NC(=O)c2c(F)cc(-c3nc(-c4ccc([C@]56C[C@H]5CN(C)C6)cc4)c(F)nc3N)cc2C1(F)F (stereo partly drawn) [Example I-135, 6-(3-amino-5-fluoro-6-(4-((1S,5R)-3-methyl-3-azabicyclo[3.1.0]hexan-1-yl)phenyl)pyrazin-2-yl)-4,4,8-trifluoro-3-methyl-3,4-dihydroisoquinolin-1(2H)-one] | 11 to 100
16 | Nc1nc(F)c(-c2ccc(N3CCN(CCCC(F)F)CC3)cc2)nc1-c1ccc2c(=O)[nH]cc(F)c2c1 [Example I-136, 6-(3-amino-6-(4-(4-(4,4-difluorobutyl)piperazin-1-yl)phenyl)-5-fluoropyrazin-2-yl)-4-fluoroisoquinolin-1(2H)-one] | 0.1 to 10
17 | Nc1nc(F)c(-c2ccc(N3CCN(CCCC(F)F)CC3)cc2)nc1-c1cc(F)c2c(c1)CCNC2=O [Example I-137, 6-(3-amino-6-(4-(4-(4,4-difluorobutyl)piperazin-1-yl)phenyl)-5-fluoropyrazin-2-yl)-8-fluoro-3,4-dihydroisoquinolin-1(2H)-one] | 0.1 to 10
18 | COC1CCN(Cc2cc(-c3nc(-c4ccc5c(c4)CCNC5=O)c(N)nc3F)ccc2N2CCOCC2)CC1 [Example I-138, 6-(3-amino-5-fluoro-6-(3-((4-methoxypiperidin-1-yl)methyl)-4-morpholinophenyl)pyrazin-2-yl)-3,4-dihydroisoquinolin-1(2H)-one] | 11 to 100
19 | Cc1c[nH]c(=O)c2ccc(-c3nc(-c4ccc(N5CCN(C6CCC6)CC5)cc4)c(F)nc3N)cc12 [Example I-139, 6-(3-amino-6-(4-(4-cyclobutylpiperazin-1-yl)phenyl)-5-fluoropyrazin-2-yl)-4-methylisoquinolin-1(2H)-one] | 0.1 to 10
20 | CC(C)N1CCN(c2ccc(-c3nc(-c4cc5c(F)c[nH]c(=O)c5cc4F)c(N)nc3F)cc2)CC1 [Example I-140, 6-(3-amino-5-fluoro-6-(4-(4-isopropylpiperazin-1-yl)phenyl)pyrazin-2-yl)-4,7-difluoroisoquinolin-1(2H)-one] | 0.1 to 10
21 | Nc1nc(F)c(-c2ccc(N3CCN(CC4CC4)CC3)cc2)nc1-c1cc2c(F)c[nH]c(=O)c2cc1F [Example I-141, 6-(3-amino-6-(4-(4-(cyclopropylmethyl)piperazin-1-yl)phenyl)-5-fluoropyrazin-2-yl)-4,7-difluoroisoquinolin-1(2H)-one] | 0.1 to 10
22 | CN(C)Cc1cc(-c2nc(-c3cc4c(F)c[nH]c(=O)c4cc3F)c(N)nc2F)ccc1C1CCOCC1 [Example I-143, 6-(3-amino-6-(3-((dimethylamino)methyl)-4-(tetrahydro-2H-pyran-4-yl)phenyl)-5-fluoropyrazin-2-yl)-4,7-difluoroisoquinolin-1(2H)-one] | 0.1 to 10
23 | Nc1nc(F)c(-c2ccc(N3CCOCC3)c(CN3CCC3)c2)nc1-c1ccc2c(c1)CCNC2=O [Example I-144, 6-(3-amino-6-(3-(azetidin-1-ylmethyl)-4-morpholinophenyl)-5-fluoropyrazin-2-yl)-3,4-dihydroisoquinolin-1(2H)-one] | 0.1 to 10
24 | Nc1nc(F)c(-c2ccc(C3CCOCC3)c(CN3CCCC3)c2)nc1-c1ccc2c(c1)CCNC2=O [Example I-147, 6-(3-amino-5-fluoro-6-(3-(pyrrolidin-1-ylmethyl)-4-(tetrahydro-2H-pyran-4-yl)phenyl)pyrazin-2-yl)-3,4-dihydroisoquinolin-1(2H)-one] | 0.1 to 10
25 | Nc1nc(F)c(-c2ccc(C3CCOCC3)c(CN3CCCC3)c2)nc1-c1cc(F)c2c(c1)CCNC2=O [Example I-149, 6-(3-amino-5-fluoro-6-(3-(pyrrolidin-1-ylmethyl)-4-(tetrahydro-2H-pyran-4-yl)phenyl)pyrazin-2-yl)-8-fluoro-3,4-dihydroisoquinolin-1(2H)-one] | 0.1 to 10
26 | CC1NC(=O)c2c(F)cc(-c3nc(-c4ccc(N5CCN(C6CCC6)CC5)cc4)c(F)nc3N)cc2C1(F)F (centres unmarked) [Example I-150, 6-(3-amino-6-(4-(4-cyclobutylpiperazin-1-yl)phenyl)-5-fluoropyrazin-2-yl)-4,4,8-trifluoro-3-methyl-3,4-dihydroisoquinolin-1(2H)-one] | 11 to 100
